According to PubChem BioAssay AID1996:
Values after ≈ are worked out from the molar mass of the structure shown.

conditions: buffer; pH 7.4; 200.0 µM

Question: Which solubility kinetic does the source give for `Cc1cccc(C(=O)OCC(=O)N2CCN(C(=O)c3ccco3)CC2)c1O` here?
Answer: 38.8 µg/mL (≈ 104 µM)

Question: Which solubility kinetic does the source give for `O=C(NC1CCCc2ccccc21)c1ccccc1OC(F)F` (configuration not stated) here?
Answer: 15.5 µg/mL (≈ 48.8 µM)

Question: Which solubility kinetic does the source give for `CCCOc1ccc(-c2cn3ccccc3n2)cc1` here?
Answer: 2.3 µg/mL (≈ 9.12 µM)

Question: For `N#CCCN(Cc1cccs1)C(=O)Nc1ccc(F)cc1`, which solubility kinetic is on record?
Answer: > 45.5 µg/mL

Question: For `CC(=O)c1sc(NC(=O)c2ccc3c(c2)OCO3)nc1C`, which solubility kinetic is on record?
Answer: 0.9 µg/mL (≈ 2.96 µM)

Question: With `Cc1ccc(CNC(=O)CSc2nc3ccccc3c(=O)n2CC2CCCO2)cc1` (configuration not stated) as the molecule, how does the solubility kinetic read?
Answer: 4.5 µg/mL (≈ 10.6 µM)

Question: With `O=c1[nH]c(-c2ccccc2)c(-c2ccccc2)o1` as the molecule, how does the solubility kinetic read?
Answer: 14.8 µg/mL (≈ 62.4 µM)

Question: With `COCc1cc(=O)[nH]c(Cc2c(Cl)cccc2Cl)n1` as the molecule, how does the solubility kinetic read?
Answer: 1.7 µg/mL (≈ 5.68 µM)

Question: Which solubility kinetic does the source give for `O=C(NC1=NCCS1)c1ccccc1Cl` here?
Answer: > 36.1 µg/mL

Question: With `N#C/C(=C\N1CCOCC1)C(N)=O` as the molecule, how does the solubility kinetic read?
Answer: > 27.2 µg/mL

Question: Which solubility kinetic does the source give for `O=C(NC(=S)NCc1ccccc1Cl)c1cccs1` here?
Answer: 3.2 µg/mL (≈ 10.3 µM)

Question: Which solubility kinetic does the source give for `Cc1cc(C)c(S(=O)(=O)c2cccc(C)c2C)c(=O)[nH]1` here?
Answer: > 43.7 µg/mL

Question: For `Cc1ccc(C2(CCNCc3ccco3)CCOC(C(C)C)C2)cc1` (configuration not stated), which solubility kinetic is on record?
Answer: > 51.2 µg/mL

Question: For `Nc1ccc(S(=O)(=O)NC2=NCCCCC2)cc1`, which solubility kinetic is on record?
Answer: > 40.1 µg/mL

Question: Which solubility kinetic does the source give for `COc1c(C(=O)Nc2nccs2)ccc2ccccc12` here?
Answer: 17 µg/mL (≈ 59.8 µM)

Question: Which solubility kinetic does the source give for `NC(=O)c1ccc(NC(=O)C2CCCC2)cc1` here?
Answer: > 34.8 µg/mL

Question: With `Cc1ccc(C(=O)NCCOc2ccc(Cl)cc2)cc1` as the molecule, how does the solubility kinetic read?
Answer: 3.4 µg/mL (≈ 11.7 µM)

Question: For `CCOc1ccccc1N1CC(C(=O)N(CC)C2CCS(=O)(=O)C2)CC1=O` (configuration not stated), which solubility kinetic is on record?
Answer: > 59.2 µg/mL

Question: With `CC1(C)CC(=O)C=C(Nc2ccc(Cl)c(Br)c2)C1` as the molecule, how does the solubility kinetic read?
Answer: 8.5 µg/mL (≈ 25.9 µM)

Question: With `CCN(CC(=O)NCc1ccc(F)cc1)S(=O)(=O)c1ccc(Cl)s1` as the molecule, how does the solubility kinetic read?
Answer: 10.5 µg/mL (≈ 26.9 µM)

Question: Which solubility kinetic does the source give for `CCN1CCN(C(=O)c2cc3cc(Cl)ccc3[nH]2)CC1` here?
Answer: > 43.8 µg/mL

Question: For `O=C(Nc1ccc2c(c1)OCCO2)c1ccc(Cl)cc1`, which solubility kinetic is on record?
Answer: 2.1 µg/mL (≈ 7.25 µM)

Question: With `C/C(=N\n1c(C)nc2ccccc2c1=O)c1ccc(C)o1` as the molecule, how does the solubility kinetic read?
Answer: > 42.2 µg/mL

Question: Which solubility kinetic does the source give for `Cc1cccc(Nc2nc(-c3ccccc3)cs2)n1` here?
Answer: 0.3 µg/mL (≈ 1.12 µM)

Question: With `COc1cccc(NC(=O)Nc2ccc3c(c2)CCC3)c1` as the molecule, how does the solubility kinetic read?
Answer: 0.3 µg/mL (≈ 1.06 µM)

Question: Which solubility kinetic does the source give for `Cc1ccc(O)c(NC(=O)c2cc(-c3ccccc3Cl)on2)c1` here?
Answer: 0.4 µg/mL (≈ 1.22 µM)

Question: Which solubility kinetic does the source give for `CCN(C(=S)Nc1cccnc1)c1ccccc1` here?
Answer: 36.3 µg/mL (≈ 141 µM)

Question: For `FC(F)(F)Oc1ccc(-c2cn3cccnc3n2)cc1`, which solubility kinetic is on record?
Answer: 8.5 µg/mL (≈ 30.4 µM)

Question: Which solubility kinetic does the source give for `CC(=O)Nc1nc(-c2ccccc2)cc(-c2ccco2)c1C#N` here?
Answer: 2 µg/mL (≈ 6.59 µM)

Question: For `COc1ccc(Cl)cc1NC(=O)CSc1cccc[n+]1[O-]`, which solubility kinetic is on record?
Answer: > 48.7 µg/mL

Question: For `COc1ccccc1CC(=O)Nc1ccon1`, which solubility kinetic is on record?
Answer: > 34.8 µg/mL

Question: With `CCCCCC(=O)O/N=C(\C)c1ccn(S(=O)(=O)c2ccccc2)c1` as the molecule, how does the solubility kinetic read?
Answer: 1.3 µg/mL (≈ 3.59 µM)

Question: Which solubility kinetic does the source give for `O=C(COC(=O)c1ccc(Br)o1)NC12CC3CC(CC(C3)C1)C2` here?
Answer: 34.3 µg/mL (≈ 89.7 µM)

Question: For `O=C(O)C1CCN(C(=O)Cc2ccccc2)CC1`, which solubility kinetic is on record?
Answer: > 37.1 µg/mL

Question: For `COc1ccccc1NS(=O)(=O)c1cc(N)ccc1N1CCCCC1`, which solubility kinetic is on record?
Answer: 6.1 µg/mL (≈ 16.9 µM)

Question: Which solubility kinetic does the source give for `COCC(=O)Nc1ccc(Br)c(C)c1` here?
Answer: > 38.7 µg/mL

Question: Which solubility kinetic does the source give for `Cc1ccc(NC(=O)COC(=O)C2CC2)cc1Cl` here?
Answer: 35.6 µg/mL (≈ 133 µM)

Question: With `O=C(Nc1cccs1)Nc1cccnc1Cl` as the molecule, how does the solubility kinetic read?
Answer: > 38.1 µg/mL

Question: For `Cc1cccnc1NC(=O)CCC(=O)c1cccs1`, which solubility kinetic is on record?
Answer: > 41.2 µg/mL

Question: Which solubility kinetic does the source give for `CSc1sccc1/C=C(/C#N)C(=O)c1ccco1` here?
Answer: 22.6 µg/mL (≈ 82.1 µM)

Question: Which solubility kinetic does the source give for `Cn1cccc1C(C#N)(CC#N)c1cccc(F)c1C#N` (configuration not stated) here?
Answer: 40.4 µg/mL (≈ 145 µM)

Question: For `Cl.N=c1ccn(Cc2c(Cl)cccc2Cl)cc1`, which solubility kinetic is on record?
Answer: > 43.4 µg/mL

Question: With `CN1C(=O)NC(c2cccc([N+](=O)[O-])c2)C2=C1CCCC2=O` (configuration not stated) as the molecule, how does the solubility kinetic read?
Answer: > 45.2 µg/mL

Question: With `COc1ccccc1NC(=O)c1ccc(COc2ccccc2OC)cc1` as the molecule, how does the solubility kinetic read?
Answer: 3.1 µg/mL (≈ 8.53 µM)

Question: Which solubility kinetic does the source give for `Cc1ccc(S(=O)(=O)NC(C)CCc2ccccc2)cc1C(N)=O` (configuration not stated) here?
Answer: > 52 µg/mL

Question: With `COc1ccc(NC(=O)c2sccc2-n2cccc2)cc1` as the molecule, how does the solubility kinetic read?
Answer: 3.4 µg/mL (≈ 11.4 µM)

Question: For `COc1ccc(NC(C)C(=O)Nc2cccc(S(=O)(=O)N3CCOCC3)c2)cc1OC` (configuration not stated), which solubility kinetic is on record?
Answer: > 67.4 µg/mL

Question: For `O=S(=O)(c1ccccc1)c1nc(NC2CC2)sc1Cl`, which solubility kinetic is on record?
Answer: 42.8 µg/mL (≈ 136 µM)

Question: With `Cc1ccc(S(=O)(=O)N2CCNC(=O)C2)c(C)c1` as the molecule, how does the solubility kinetic read?
Answer: > 40.2 µg/mL

Question: Which solubility kinetic does the source give for `O=C1Nc2ccccc2/C1=C/c1ccccc1F` here?
Answer: 2.4 µg/mL (≈ 10 µM)

Question: Which solubility kinetic does the source give for `CCOC(=O)C1=C(O)C(=O)N(Cc2ccccc2)C1` here?
Answer: > 39.2 µg/mL

Question: With `OC(CC#CCN1CCCCC1)(c1ccccc1)c1ccccc1` as the molecule, how does the solubility kinetic read?
Answer: > 47.9 µg/mL

Question: Which solubility kinetic does the source give for `CCn1c(/C=C/c2ccccc2F)nc2ccccc2c1=O` here?
Answer: 2.2 µg/mL (≈ 7.47 µM)

Question: For `CC(NC(=O)c1cc2ccccc2oc1=O)c1ccc(O)cc1` (configuration not stated), which solubility kinetic is on record?
Answer: 27.3 µg/mL (≈ 88.3 µM)

Question: Which solubility kinetic does the source give for `CCN(Cc1nc(-c2ccc(C)cc2)no1)C(=O)c1ccco1` here?
Answer: 38.9 µg/mL (≈ 125 µM)

Question: With `O=C(NCc1ccc(Cl)cc1)C1CCN(c2cnccn2)CC1` as the molecule, how does the solubility kinetic read?
Answer: > 49.6 µg/mL

Question: For `COc1ccc2cc(C3OCCO3)c(Cl)nc2c1`, which solubility kinetic is on record?
Answer: 32.1 µg/mL (≈ 121 µM)

Question: For `CC1CCCC(C)N1C(=O)COC(=O)/C=C/c1ccco1` (configuration not stated), which solubility kinetic is on record?
Answer: 10 µg/mL (≈ 34.3 µM)

Question: For `CCOC(=O)Cc1csc(NC(=O)CCSc2ccccc2)n1`, which solubility kinetic is on record?
Answer: 38.5 µg/mL (≈ 110 µM)

Question: For `Cc1ccc(NC2=CC(=O)C(=O)c3ccccc32)c(C)c1`, which solubility kinetic is on record?
Answer: 3.5 µg/mL (≈ 12.6 µM)

Question: Which solubility kinetic does the source give for `CCOc1ccc(-c2nc(CCl)cs2)cc1OC.Cl` here?
Answer: 27.2 µg/mL

Question: With `CNC(=S)N1CCC(Cc2ccccc2)CC1` as the molecule, how does the solubility kinetic read?
Answer: 36.9 µg/mL (≈ 149 µM)
